The values that follow come from US6680318B2, “Piperazinomethylbenzamides as delta-opioid receptor agonists” (AstraZeneca AB, priority 1999, dated 2004).

One data set addresses T1, HDelta (Homo sapiens, UniProt P41143).
T1 construct: expressed in transfected cells; host or cells: human 293S cells (geneticin-selected)
Briefly: HDelta agonist activity (EC50, % EMAX). The class given is biochemical.

The next data set has as its target Rat Brain (Rattus norvegicus, UniProt P33533). The data set is described as follows: Rat Brain agonist activity (EC50, % EMAX). The class given is biochemical.
For data set [1], the target named is T2, cloned human δ receptors (HDelta) (Homo sapiens, UniProt P41143).
T2 construct: expressed in transfected cells; host or cells: human 293S cells (geneticin-selected)
Briefly: Binding assay on membranes of 293S cells expressing cloned human δ receptor (HDelta).

A short description of data set [2]: RLM metabolic stability (% remaining). In kind it is in vitro ADME, rat.
The nature of data set [3]: MLM metabolic stability (% remaining). The class given is in vitro ADME, mouse.
A further data set has as its target T3, Mouse Brain (Mus musculus, UniProt P32300).
T3 construct: from tissue; host or cells: mouse brain
Briefly: Mouse Brain agonist activity (EC50, % EMAX). In kind it is biochemical.

Where [4] appears, read: 10000 (concentration, unit not given).
[5] abbreviates: 100000 (concentration, unit not given).

Structures are written as SMILES. Counter-ions that a name gives are not always drawn. Like-named read-outs stand apart in the source and are kept apart here.

T1 sequence (P41143 whole entry): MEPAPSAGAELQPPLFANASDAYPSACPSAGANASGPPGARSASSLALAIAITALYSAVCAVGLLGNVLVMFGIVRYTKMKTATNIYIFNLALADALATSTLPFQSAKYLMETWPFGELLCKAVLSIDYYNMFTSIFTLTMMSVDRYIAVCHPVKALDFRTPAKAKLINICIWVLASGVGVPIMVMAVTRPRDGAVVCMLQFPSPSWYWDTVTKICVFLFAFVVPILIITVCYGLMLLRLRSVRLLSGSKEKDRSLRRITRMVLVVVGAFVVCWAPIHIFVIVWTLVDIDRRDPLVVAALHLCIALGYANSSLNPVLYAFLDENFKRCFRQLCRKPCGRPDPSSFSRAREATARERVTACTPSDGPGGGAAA
Rat Brain, sequence (P33533 whole entry): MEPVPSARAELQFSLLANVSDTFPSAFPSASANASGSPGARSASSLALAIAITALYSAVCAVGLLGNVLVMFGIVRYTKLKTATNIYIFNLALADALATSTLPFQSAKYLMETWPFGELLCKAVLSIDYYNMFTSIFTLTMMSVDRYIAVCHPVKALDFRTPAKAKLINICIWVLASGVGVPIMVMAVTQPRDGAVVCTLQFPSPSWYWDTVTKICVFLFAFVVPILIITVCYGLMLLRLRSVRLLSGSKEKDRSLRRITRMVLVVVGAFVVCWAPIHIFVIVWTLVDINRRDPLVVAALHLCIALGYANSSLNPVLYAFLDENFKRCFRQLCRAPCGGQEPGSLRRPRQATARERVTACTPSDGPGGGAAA
T3 sequence (P32300 whole entry): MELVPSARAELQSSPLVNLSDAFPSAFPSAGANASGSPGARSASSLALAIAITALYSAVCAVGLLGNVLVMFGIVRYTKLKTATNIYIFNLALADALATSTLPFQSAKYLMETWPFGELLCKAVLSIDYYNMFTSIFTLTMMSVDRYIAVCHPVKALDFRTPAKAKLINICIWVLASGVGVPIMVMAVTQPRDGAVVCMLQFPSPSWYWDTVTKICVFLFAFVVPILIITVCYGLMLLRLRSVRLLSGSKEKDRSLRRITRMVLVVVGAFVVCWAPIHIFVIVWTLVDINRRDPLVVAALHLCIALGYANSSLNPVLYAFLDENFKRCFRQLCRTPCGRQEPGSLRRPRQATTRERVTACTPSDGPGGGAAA
T2 sequence (P41143 whole entry): as the sequence (P41143 whole entry) above

As to `CCN(CC)C(=O)c1ccc(C(c2cccc3c2OC(C)(C)C3)N2CCN(Cc3cccnc3)CC2)cc1` (stereo not shown) [Example 3, 4-{(2,2-dimethyl-2,3-dihydro-1-benzofuran-7-yl)[4-(3-pyridinylmethyl)-1-piperazinyl]methyl}-N,N-diethylbenzamide Dihydrochloride], the maximal effect (Emax) at HDelta turned out to be 103%; on Rat Brain, 93%. Moreover, on HDelta (read-out: HDelta EC50), the EC50 was 19.5 nM.

In turn, `CCN(CC)C(=O)c1ccc(C(c2cccc3c2OC(C)(C)C3)N2CCN(Cc3ccccn3)CC2)cc1` (stereo not shown) [Example 4, 4-{(2,2-dimethyl-2,3-dihydro-1-benzofuran-7-yl)[4-(2-pyridinylmethyl)-1-piperazinyl]methyl}-N,N-diethylbenzamide Ditrifuroacetae] showed an IC50 in data set [1] of 3.26 nM. Besides, the “RLM 10000 % rem.” value in data set [2] (setting [4]) is 42.5%. Moreover, the “RLM 100000 % rem.” value in data set [2] (setting [5]) came out at 90.5%. The EC50 came out at 7.38 nM at HDelta and 144 nM on Mouse Brain. Further, the Emax was 104% at HDelta, 118% on Rat Brain and 118% on Mouse Brain. Besides, the “MLM 10000 % rem.” value in data set [3] (setting [4]) is listed as 44.5%. Moreover, the “MLM 100000 % rem.” value in data set [3] (setting [5]) was 93%.

As usually defined, the Emax is the greatest response seen or fitted, relative to the assay's reference. As a reminder, the IC50 is the point on the concentration scale where inhibition reaches its midpoint. Read a low IC50 as greater potency in that assay.
